Source: the supplement of paper PMC10307832

Tests used:
Experiment in all cases: relative viability (nuclei count vs DMSO), 5 days (fraction); higher = more cells survive
BEN = system: BEN
Outline: (§1)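 Nuclei were stained with Hoechst during a one-step fixation (final 0.05% Triton X-100, 1% formaldehyde, 1 ug/ml Hoechst) carried out 5 days after dosing, then counted on 4× images. The cells, lung cancer lines in 1536-well plates, had been dosed by pin tool the day after seeding with one drug alone or a fixed anchor-drug dose plus five library-drug doses (not always all listed) in √10 steps. Relative viability is the nuclei count in treated wells divided by that in vehicle wells, and each value is the median of duplicate plates.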

EMC-BAC-2 = system: EMC-BAC-2
Outline: as §1

HCC-15 = system: HCC-15
Outline: as §1

HCC-44 = system: HCC-44
Outline: as §1

HOP-62 = system: HOP-62
Outline: as §1

LC-2-ad = system: LC-2-ad
Outline: as §1

LU99A = system: LU99A
Outline: as §1

NCI-H1395 = system: NCI-H1395
Outline: as §1

NCI-H1437 = system: NCI-H1437
Outline: as §1

NCI-H1563 = system: NCI-H1563
Outline: as §1

NCI-H1734 = system: NCI-H1734
Outline: as §1

NCI-H1755 = system: NCI-H1755
Outline: as §1

NCI-H1915 = system: NCI-H1915
Outline: as §1

NCI-H2023 = system: NCI-H2023
Outline: as §1

NCI-H2126 = system: NCI-H2126
Outline: as §1

NCI-H2170 = system: NCI-H2170
Outline: as §1

NCI-H3122 = system: NCI-H3122
Outline: as §1

NCI-H358 = system: NCI-H358
Outline: as §1

NCI-H650 = system: NCI-H650
Outline: as §1

NCI-H727 = system: NCI-H727
Outline: as §1

SW 1573 = system: SW 1573
Outline: as §1

CN1CCN(CCOc2cc(OC3CCOCC3)c3c(Nc4c(Cl)ccc5c4OCO5)ncnc3c2)CC1 [Saracatinib] + CS(=O)(=O)N1CCN(Cc2cc3nc(-c4cccc5[nH]ncc45)nc(N4CCOCC4)c3s2)CC1 [Pictilisib] (partner 1 µM)
relative viability (BEN; first compound 0.02 µM): 0.57 | relative viability (BEN; first compound 0.2 µM): 0.56 | relative viability (BEN; first compound 0.6325 µM): 0.573 | relative viability (BEN; first compound 2 µM): 0.427 | relative viability (EMC-BAC-2; first compound 0.02 µM): 0.546 | relative viability (EMC-BAC-2; first compound 0.2 µM): 0.507 | relative viability (EMC-BAC-2; first compound 0.6325 µM): 0.497 | relative viability (EMC-BAC-2; first compound 2 µM): 0.34 | relative viability (HCC-15; first compound 0.02 µM): 0.797 | relative viability (HCC-15; first compound 0.2 µM): 0.585 | relative viability (HCC-15; first compound 0.6325 µM): 0.684 | relative viability (HCC-15; first compound 2 µM): 0.539 | relative viability (HCC-44; first compound 0.02 µM): 0.527 | relative viability (HCC-44; first compound 0.2 µM): 0.598 | relative viability (HCC-44; first compound 0.6325 µM): 0.854 | relative viability (HCC-44; first compound 2 µM): 0.442 | relative viability (HOP-62; first compound 0.02 µM): 0.548 | relative viability (HOP-62; first compound 0.2 µM): 0.685 | relative viability (HOP-62; first compound 0.6325 µM): 1.05 | relative viability (HOP-62; first compound 2 µM): 0.605 | relative viability (LC-2-ad; first compound 0.02 µM): 0.578 | relative viability (LC-2-ad; first compound 0.6325 µM): 0.443 | relative viability (LC-2-ad; first compound 2 µM): 0.362 | relative viability (LU99A; first compound 0.02 µM): 0.334 | relative viability (LU99A; first compound 0.2 µM): 0.259 | relative viability (LU99A; first compound 0.6325 µM): 0.309 | relative viability (LU99A; first compound 2 µM): 0.299 | relative viability (NCI-H1395; first compound 0.02 µM): 0.603 | relative viability (NCI-H1395; first compound 0.2 µM): 0.497 | relative viability (NCI-H1395; first compound 0.6325 µM): 0.672 | relative viability (NCI-H1395; first compound 2 µM): 0.528 | relative viability (NCI-H1437; first compound 0.02 µM): 0.416 | relative viability (NCI-H1437; first compound 0.2 µM): 0.418 | relative viability (NCI-H1437; first compound 0.6325 µM): 0.454 | relative viability (NCI-H1437; first compound 2 µM): 0.393 | relative viability (NCI-H1563; first compound 0.02 µM): 0.618 | relative viability (NCI-H1563; first compound 0.2 µM): 0.609 | relative viability (NCI-H1563; first compound 0.6325 µM): 0.63 | relative viability (NCI-H1563; first compound 2 µM): 0.606 | relative viability (NCI-H1734; first compound 0.02 µM): 0.475 | relative viability (NCI-H1734; first compound 0.6325 µM): 0.435 | relative viability (NCI-H1734; first compound 2 µM): 0.387 | relative viability (NCI-H1755; first compound 0.02 µM): 0.424 | relative viability (NCI-H1755; first compound 0.2 µM): 0.408 | relative viability (NCI-H1755; first compound 0.6325 µM): 0.431 | relative viability (NCI-H1755; first compound 2 µM): 0.26 | relative viability (NCI-H1915; first compound 0.02 µM): 0.952 | relative viability (NCI-H1915; first compound 0.2 µM): 0.79 | relative viability (NCI-H1915; first compound 0.6325 µM): 0.928 | relative viability (NCI-H1915; first compound 2 µM): 0.767 | relative viability (NCI-H2023; first compound 0.02 µM): 0.267 | relative viability (NCI-H2023; first compound 0.2 µM): 0.317 | relative viability (NCI-H2023; first compound 0.6325 µM): 0.242 | relative viability (NCI-H2023; first compound 2 µM): 0.197 | relative viability (NCI-H2126; first compound 0.02 µM): 0.475 | relative viability (NCI-H2126; first compound 0.2 µM): 0.498 | relative viability (NCI-H2126; first compound 0.6325 µM): 0.529 | relative viability (NCI-H2126; first compound 2 µM): 0.429 | relative viability (NCI-H2170; first compound 0.02 µM): 0.355 | relative viability (NCI-H2170; first compound 0.2 µM): 0.233 | relative viability (NCI-H2170; first compound 0.6325 µM): 0.234 | relative viability (NCI-H2170; first compound 2 µM): 0.208 | relative viability (NCI-H3122; first compound 0.02 µM): 0.573 | relative viability (NCI-H3122; first compound 0.6325 µM): 0.586 | relative viability (NCI-H3122; first compound 2 µM): 0.454 | relative viability (NCI-H358; first compound 0.02 µM): 0.348 | relative viability (NCI-H358; first compound 0.2 µM): 0.226 | relative viability (NCI-H358; first compound 0.6325 µM): 0.284 | relative viability (NCI-H358; first compound 2 µM): 0.257 | relative viability (NCI-H650; first compound 0.02 µM): 0.771 | relative viability (NCI-H650; first compound 0.2 µM): 0.837 | relative viability (NCI-H650; first compound 0.6325 µM): 0.871 | relative viability (NCI-H650; first compound 2 µM): 0.86 | relative viability (NCI-H727; first compound 0.02 µM): 0.295 | relative viability (NCI-H727; first compound 0.2 µM): 0.423 | relative viability (NCI-H727; first compound 0.6325 µM): 0.354 | relative viability (NCI-H727; first compound 2 µM): 0.407 | relative viability (SW 1573; first compound 0.02 µM): 0.47 | relative viability (SW 1573; first compound 0.2 µM): 0.451 | relative viability (SW 1573; first compound 0.6325 µM): 0.456 | relative viability (SW 1573; first compound 2 µM): 0.295

CN1CCN(CCOc2cc(OC3CCOCC3)c3c(Nc4c(Cl)ccc5c4OCO5)ncnc3c2)CC1 [Saracatinib] + Cc1nc(NC(=O)N2CCC[C@H]2C(N)=O)sc1-c1ccnc(C(C)(C)C(F)(F)F)c1 [Alpelisib] (partner 2 µM)
relative viability (BEN; first compound 0.02 µM): 1.08 | relative viability (BEN; first compound 0.2 µM): 1.03 | relative viability (BEN; first compound 0.6325 µM): 1.07 | relative viability (BEN; first compound 2 µM): 0.85 | relative viability (EMC-BAC-2; first compound 0.02 µM): 0.778 | relative viability (EMC-BAC-2; first compound 0.2 µM): 0.657 | relative viability (EMC-BAC-2; first compound 0.6325 µM): 0.697 | relative viability (EMC-BAC-2; first compound 2 µM): 0.578 | relative viability (HCC-15; first compound 0.02 µM): 0.889 | relative viability (HCC-15; first compound 0.2 µM): 0.641 | relative viability (HCC-15; first compound 0.6325 µM): 0.808 | relative viability (HCC-15; first compound 2 µM): 0.759 | relative viability (HCC-44; first compound 0.02 µM): 0.859 | relative viability (HCC-44; first compound 0.2 µM): 0.658 | relative viability (HCC-44; first compound 0.6325 µM): 0.874 | relative viability (HCC-44; first compound 2 µM): 0.862 | relative viability (HOP-62; first compound 0.02 µM): 0.989 | relative viability (HOP-62; first compound 0.2 µM): 0.782 | relative viability (HOP-62; first compound 0.6325 µM): 0.801 | relative viability (HOP-62; first compound 2 µM): 0.749 | relative viability (LC-2-ad; first compound 0.02 µM): 0.903 | relative viability (LC-2-ad; first compound 0.6325 µM): 0.882 | relative viability (LC-2-ad; first compound 2 µM): 0.691 | relative viability (LU99A; first compound 0.02 µM): 0.568 | relative viability (LU99A; first compound 0.2 µM): 0.371 | relative viability (LU99A; first compound 0.6325 µM): 0.513 | relative viability (LU99A; first compound 2 µM): 0.417 | relative viability (NCI-H1395; first compound 0.02 µM): 1.6 | relative viability (NCI-H1395; first compound 0.2 µM): 1.06 | relative viability (NCI-H1395; first compound 0.6325 µM): 0.956 | relative viability (NCI-H1395; first compound 2 µM): 0.851 | relative viability (NCI-H1437; first compound 0.02 µM): 0.987 | relative viability (NCI-H1437; first compound 0.2 µM): 0.894 | relative viability (NCI-H1437; first compound 0.6325 µM): 0.845 | relative viability (NCI-H1437; first compound 2 µM): 0.895 | relative viability (NCI-H1563; first compound 0.02 µM): 0.992 | relative viability (NCI-H1563; first compound 0.2 µM): 0.882 | relative viability (NCI-H1563; first compound 0.6325 µM): 0.725 | relative viability (NCI-H1563; first compound 2 µM): 0.693 | relative viability (NCI-H1734; first compound 0.02 µM): 0.669 | relative viability (NCI-H1734; first compound 0.6325 µM): 0.646 | relative viability (NCI-H1734; first compound 2 µM): 0.507 | relative viability (NCI-H1755; first compound 0.02 µM): 0.928 | relative viability (NCI-H1755; first compound 0.2 µM): 0.709 | relative viability (NCI-H1755; first compound 0.6325 µM): 0.864 | relative viability (NCI-H1755; first compound 2 µM): 0.712 | relative viability (NCI-H1915; first compound 0.02 µM): 1.04 | relative viability (NCI-H1915; first compound 0.2 µM): 0.552 | relative viability (NCI-H1915; first compound 0.6325 µM): 1.07 | relative viability (NCI-H1915; first compound 2 µM): 1.01 | relative viability (NCI-H2023; first compound 0.02 µM): 0.62 | relative viability (NCI-H2023; first compound 0.2 µM): 0.409 | relative viability (NCI-H2023; first compound 0.6325 µM): 0.485 | relative viability (NCI-H2023; first compound 2 µM): 0.364 | relative viability (NCI-H2126; first compound 0.02 µM): 0.751 | relative viability (NCI-H2126; first compound 0.2 µM): 0.654 | relative viability (NCI-H2126; first compound 0.6325 µM): 0.749 | relative viability (NCI-H2126; first compound 2 µM): 0.622 | relative viability (NCI-H2170; first compound 0.02 µM): 0.731 | relative viability (NCI-H2170; first compound 0.2 µM): 0.749 | relative viability (NCI-H2170; first compound 0.6325 µM): 0.752 | relative viability (NCI-H2170; first compound 2 µM): 0.464 | relative viability (NCI-H3122; first compound 0.02 µM): 0.822 | relative viability (NCI-H3122; first compound 0.6325 µM): 0.664 | relative viability (NCI-H3122; first compound 2 µM): 0.46 | relative viability (NCI-H358; first compound 0.02 µM): 0.839 | relative viability (NCI-H358; first compound 0.2 µM): 0.881 | relative viability (NCI-H358; first compound 0.6325 µM): 0.514 | relative viability (NCI-H358; first compound 2 µM): 0.448 | relative viability (NCI-H650; first compound 0.02 µM): 1.14 | relative viability (NCI-H650; first compound 0.2 µM): 0.814 | relative viability (NCI-H650; first compound 0.6325 µM): 1.21 | relative viability (NCI-H650; first compound 2 µM): 1.13 | relative viability (NCI-H727; first compound 0.02 µM): 0.558 | relative viability (NCI-H727; first compound 0.2 µM): 0.461 | relative viability (NCI-H727; first compound 0.6325 µM): 0.334 | relative viability (NCI-H727; first compound 2 µM): 0.308 | relative viability (SW 1573; first compound 0.02 µM): 0.83 | relative viability (SW 1573; first compound 0.2 µM): 0.689 | relative viability (SW 1573; first compound 0.6325 µM): 0.833 | relative viability (SW 1573; first compound 2 µM): 0.51
